Results on five compounds are retold here after paper PMC4094919, “Screening and hit evaluation of a chemical library against blood-stage Plasmodium falciparum” (Malaria Journal, 2014).

“Also recorded” adds a separate entry of the source. Like-named read-outs stand apart in the source and are kept apart here.

The test system of one series is P. falciparum 3D7 strain. Nature of the series: P. falciparum 3D7 growth inhibition, DAPI imaging (HTS screen). In kind it is cell-based. Conditions: Plasmodium falciparum. Here is the method: The P. falciparum 3D7 strain was used for the primary screen.
For the screening of the chemical library, a validated high throughput screening (HTS) method was used as reported by Duffy and Avery. In brief, intra-erythrocyte P. falciparum 3D7 parasites incubated with the compounds for 72 hours were stained with 4′-6-diamidino-2-phenylindole (DAPI) and imaged using a high throughput confocal imaging system. To ascertain inhibition of parasite growth, images of fluorescent parasites were translated, using a mathematical algorithm, into a numerical output of classified spots (parasites) as determined by fluorescence size and intensity.
EC50 and CC50 values were calculated for compounds which presented an Emax plateau using GraphPad Prism.

The nature of series [1]: Chemical stability on standing at room temperature. It is filed as physicochemical.
The subject of series [2] is P. falciparum NF54 strain. Nature of the series: P. falciparum NF54 growth assay, 3H-hypoxanthine incorporation (hit validation). It is filed as cell-based, Plasmodium falciparum. Conditions: for EC50: Plasmodium falciparum; for Comment (activity in words on retest): hit validation, NF54 confirmatory assay. Here is the method:
Synthesized compounds were tested in an alternative assay, in which ^3H-hypoxanthine incorporation was measured in the chloroquine-sensitive strain NF54 (Values were measured in duplicate, 12 points/EC50).
Cultivation of Plasmodium falciparum: Plasmodium falciparum strain NF54 was obtained from the Research and Reference Reagent Resource Center (MR4) (Manassas, VA, USA). The two strains were maintained in vitro by a modification of the method of Trager and Jensen. Cultures were maintained in A positive (A^+) human erythrocytes suspended at 5% hematocrit in complete medium. […] Parasite growth and morphology were observed daily using thin smears at 100X (oil immersion) magnification following staining with Giemsa stain.
Plasmodium falciparum growth assay: The protocol assesses the compound efficacy against the growth of P. falciparum in vitro.
All cultures used in the study are albumax II adopted. […]
Following the incubation period, the plates were harvested with a FilterMate cell harvester (Perkin Elmer) onto unifilter-96 GF/B plates, washed with distilled water to remove excess radiochemical and plates were kept for drying 37°C overnight or 60°C for 1 hr. Fifty µL of Microscint scintillation cocktail (Microscint-High Efficiency LSC-Cocktail; Perkin Elmer) added in the unifilter-96 GF/B plates and kept for 15-20 min. The plates were counted in a Top Count NXT microplate scintillation and luminescence counter (Perkin Elmer). The mean values for [^3H]-hypoxanthine incorporation in parasitized control and non-parasitized control erythrocytes were calculated.
Assay data were analysed using Graph pad prism ver.5 software. A variable sigmoid dose response curve is plotted keeping log concentrations at X-axis and % inhibition at Y-axis.

Where [3] appears, read: P. falciparum 3D7 strain, DAPI imaging, HTS screen, library sample, read-out: EC50 (3D7).
The mark [4] stands for this setting: negative logarithm of the molar EC50, 3D7, read-out: pEC50 (3D7) (converted).
Setting [5] is: NF54, heading bounds of Figure 8: not reconfirming / reconfirming / newly synthesized compounds, read-out: EC50 (bound in Figure 8).
The mark [6] stands for this setting: P. falciparum NF54 strain, 3H-hypoxanthine incorporation, newly synthesized sample, read-out: EC50 (NF54).
[7] abbreviates: negative logarithm of the molar EC50, NF54, read-out: pEC50 (NF54) (converted).
[8] abbreviates: 3D7 / NF54, range over HTS (3D7) and retest after synthesis (NF54), read-out: EC50 range over the two assays.

Regarding `Cc1c(CO)c2ccccc2n1Cc1ccccc1C#N` [Compound 1, 2-((3-(hydroxymethyl)-2-methyl-1H-indol-1-yl)methyl)benzonitrile], the EC50 with P. falciparum 3D7 strain (setting [3]) is 602 nM; in the series with P. falciparum 3D7 strain (setting [4]) it was 631 nM; in series [2] (setting [5]), greater than 1000 nM; in series [2] (setting [6]), 4700 nM; in series [2] (setting [7]), 5010 nM. In addition, in series [1], the Chemical stability result was “significantly degraded; also recorded: unstable”. For the same compound, the “Comment (activity in words on retest)” value in series [2] is reported as “Weakly active/unstable”.
As to `O=C(NCC(c1ccsc1)N1CCCCCC1)c1ccc(C(F)(F)F)cc1` (stereo not drawn) [Compound 11, N-(2-(azepan-1-yl)-2-(thiophen-3-yl)ethyl)-4-(trifluoromethyl)benzamide], the EC50 in the series with P. falciparum 3D7 strain (setting [3]) is 433 nM; in the series on P. falciparum 3D7 strain (setting [4]) it was 398 nM; in series [2] (setting [5]), less than 1000 nM; in series [2] (setting [6]), 518 nM; in series [2] (setting [7]) it was 501 nM. For the same compound, the “Comment (activity in words on retest)” value in series [2] was “Validated hit”.
Consider `Cc1csc(Sc2ncnc3sccc23)n1` [Compound 13, 4-((4-methylthiazol-2-yl)thio)thieno[2,3-d]pyrimidine], for which the EC50 in the series with P. falciparum 3D7 strain (setting [3]) is 194 nM; in the series with P. falciparum 3D7 strain (setting [4]) it was 200 nM; in series [2] (setting [8]) it was 102 to 194 nM; in series [2] (setting [5]), less than 1000 nM; in series [2] (setting [6]), 102 nM; in series [2] (setting [7]), 100 nM. The “Comment (activity in words on retest)” value in series [2] was “Validated hit”.
In the case of `CC(=O)N1c2ccccc2C(c2ccccc2)C1C(=O)O` (stereo not drawn) [Compound 4], the EC50 is 172 nM in the series on P. falciparum 3D7 strain (setting [3]), 158 nM in the series on P. falciparum 3D7 strain (setting [4]) and greater than 1000 nM in series [2] (setting [5]).
For `CCOc1ncccc1C(=O)Nc1cc(C(F)(F)F)ccc1Oc1cccc(OC)c1` [Compound 9, 2-ethoxy-N-(2-(3-methoxyphenoxy)-5-(trifluoromethyl)phenyl)nicotinamide], the EC50 in the series on P. falciparum 3D7 strain (setting [3]) was 393 nM; with P. falciparum 3D7 strain (setting [4]), 398 nM; in series [2] (setting [8]), 309 to 393 nM; in series [2] (setting [5]), less than 1000 nM; in series [2] (setting [6]), 309 nM; in series [2] (setting [7]) it was 316 nM. The “Comment (activity in words on retest)” value in series [2] is “Validated hit”.
